pKi: −log10 of the molar value. Structures can show the parent of a compound that is named as a salt.
What follows are compounds tested against T1, human GlyT1c transporter (Homo sapiens, UniProt P48067) (assay: Radioligand binding assay using recombinant CHO cell membranes expressing human GlyT1). Conditions: values given as upper bounds, read-out: radioligand binding Kiapp.
T1 construct: expressed in transfected cells; host or cells: CHO cells (recombinant; membranes)
T1 sequence (P48067 1-706): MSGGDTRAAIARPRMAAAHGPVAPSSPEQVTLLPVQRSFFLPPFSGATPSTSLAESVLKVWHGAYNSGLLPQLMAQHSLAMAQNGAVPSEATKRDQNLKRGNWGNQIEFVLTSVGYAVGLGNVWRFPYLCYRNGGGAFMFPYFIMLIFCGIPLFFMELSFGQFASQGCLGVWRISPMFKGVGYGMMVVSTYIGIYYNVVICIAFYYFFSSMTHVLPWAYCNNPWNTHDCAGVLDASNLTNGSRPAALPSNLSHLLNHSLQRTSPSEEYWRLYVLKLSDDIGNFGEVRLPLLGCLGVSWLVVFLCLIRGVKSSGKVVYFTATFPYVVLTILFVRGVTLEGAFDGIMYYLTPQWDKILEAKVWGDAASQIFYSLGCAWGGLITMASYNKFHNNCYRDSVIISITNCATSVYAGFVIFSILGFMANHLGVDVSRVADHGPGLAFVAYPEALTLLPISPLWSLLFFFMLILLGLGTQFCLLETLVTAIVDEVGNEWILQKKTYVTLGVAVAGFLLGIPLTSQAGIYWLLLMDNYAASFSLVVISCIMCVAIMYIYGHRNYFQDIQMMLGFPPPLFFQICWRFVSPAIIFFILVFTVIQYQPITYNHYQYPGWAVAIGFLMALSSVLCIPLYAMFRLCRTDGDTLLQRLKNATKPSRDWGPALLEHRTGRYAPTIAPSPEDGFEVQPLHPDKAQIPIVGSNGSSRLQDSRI
Procedure: 2. Radioligand Binding Assays Using Recombinant CHO Cell Membranes Expressing Human GlyT1:
Radioligand binding to human GlyT1c transporter-expressing membranes was determined as described in Mezler et al., Molecular Pharmacology 74:1705-1715, 2008.

pKi	Compound
≥ 6.00	CN[C@H]1[C@H](Cc2ccccc2)c2cc(OCCNS(=O)(=O)CC3CC3)ccc2OC1(C)C (relative stereo) [Example 77, trans-N-[2-(-4-Benzyl-2,2-dimethyl-3-methylamino-chroman-6-yloxy)-ethyl]-C-cyclopropyl-methanesulfonamide]
≥ 7.00	CCCS(=O)(=O)NCc1ccc2c(c1)C(Cc1ccccc1)C(N1CCC1)CO2 (stereo not drawn) [Example 20, Propane-1-sulfonic acid (3-azetidin-1-yl-4-benzyl-chroman-6-ylmethyl)-amide; trifluoro-acetic acid salt]
≥ 6.00	NC1COc2ccc(CNS(=O)(=O)c3ccsc3)cc2C1Cc1ccccc1 (stereo not drawn) [Example 49, Thiophene-3-sulfonic acid (3-amino-4-benzyl-chroman-6-ylmethyl)-amide 2,2,2-trifluoroacetate]
≥ 5.00	NC1COc2ccc(CNS(=O)(=O)N3CCOCC3)cc2C1Cc1ccccc1 (stereo not drawn) [Example 44, Morpholine-4-sulfonic acid (3-amino-4-benzyl-chroman-6-ylmethyl)-amide 2,2,2-trifluoroacetate]
≥ 6.00	CCS(=O)(=O)NCCOc1ccc2c(c1)[C@@H](Cc1ccccc1)[C@H](NC)C(C)(C)O2 (relative stereo) [Example 73, trans-Ethanesulfonic acid [2-(-4-benzyl-2,2-dimethyl-3-methylamino-chroman-6-yloxy)-ethyl]-amide]
≥ 8.00	N[C@@H]1COc2ccc(CNS(=O)(=O)CC3CC3)cc2[C@@H]1Cc1ccccc1 (relative stereo) [Example 67, cis-N-(-3-Amino-4-benzyl-chroman-6-ylmethyl)-C-cyclopropyl-methanesulfonamide]
≥ 6.00	CN[C@H]1[C@@H](Cc2ccccc2)c2cc(OCCNS(=O)(=O)CC3CC3)ccc2OC1(C)C (relative stereo) [Example 76, cis-N-[2-(-4-Benzyl-2,2-dimethyl-3-methylamino-chroman-6-yloxy)-ethyl]-C-cyclopropyl-methanesulfonamide]
≥ 7.00	CCCS(=O)(=O)NCc1ccc2c(c1)[C@@H](Cc1ccccc1)[C@H](NC)CO2 (relative stereo) [Example 7b, trans-N-{[4-benzyl-3-(methylamino)-3,4-dihydro-2H-chromen-6-yl]methyl}propane-1-sulfonamide]
≥ 7.00	CN[C@@H]1COc2cc(F)c(CNS(=O)(=O)c3cn(C)cn3)cc2[C@@H]1Cc1ccccc1 (relative stereo) [Example 31, cis-1-Methyl-1H-imidazole-4-sulfonic acid (-4-benzyl-7-fluoro-3-methylamino-chroman-6-ylmethyl)-amide]
≥ 8.00	CCCN[C@@H]1COc2ccc(CNS(=O)(=O)c3cn(C)cn3)cc2[C@@H]1Cc1ccccc1 (relative stereo) [Example 35, cis-N-((-4-benzyl-3-(propylamino)chroman-6-yl)methyl)-1-methyl-1H-imidazole-4-sulfonamide 2,2,2-trifluoroacetate]
≥ 5.00	Cc1nn(C)cc1S(=O)(=O)NCc1ccc2c(c1)C(Cc1ccccc1)C(N)CO2 (stereo not drawn) [Example 45, 1,3-Dimethyl-1H-pyrazole-4-sulfonic acid (3-amino-4-benzyl-chroman-6-ylmethyl)-amide 2,2,2-trifluoroacetate]
≥ 6.00	CN[C@@H]1COc2ccc(CNS(=O)(=O)C3CCC3)cc2[C@H]1Cc1ccccc1 (relative stereo) [Example 26, trans-Cyclobutanesulfonic acid (4-benzyl-3-methylamino-chroman-6-ylmethyl)-amide]
≥ 6.00	CCCS(=O)(=O)NCCOc1ccc2c(c1)[C@@H](Cc1ccccc1)[C@H](NC)CO2 (relative stereo) [Example 3b, trans-N-(2-{[-4-benzyl-3-(methylamino)-3,4-dihydro-2H-chromen-6-yl]oxy}ethyl)propane-1-sulfonamide]
≥ 6.00	Cc1ccc(S(=O)(=O)NCc2ccc3c(c2)C(Cc2ccccc2)C(N)CO3)o1 (stereo not drawn) [Example 52, 5-Methyl-furan-2-sulfonic acid (3-amino-4-benzyl-chroman-6-ylmethyl)-amide 2,2,2-trifluoroacetate]
≥ 7.00	CCS(=O)(=O)NCc1ccc2c(c1)[C@H](Cc1ccccc1)[C@H](N)CO2 (relative stereo) [Example 23, cis-Ethanesulfonic acid (3-amino-4-benzyl-chroman-6-ylmethyl)-amide]
≥ 7.00	NC1COc2ccc(CNS(=O)(=O)c3ccoc3)cc2C1Cc1ccccc1 (stereo not drawn) [Example 54, Furan-3-sulfonic acid (3-amino-4-benzyl-chroman-6-ylmethyl)-amide 2,2,2-trifluoroacetate]
≥ 7.00	CCCS(=O)(=O)NCCOc1ccc2c(c1)[C@H](Cc1ccccc1)[C@H](N1CCC1)CO2 (relative stereo) [Example 14, cis-Propane-1-sulfonic acid [2-(3-azetidin-1-yl-4-benzyl-chroman-6-yloxy)-ethyl]-amide; trifluoro-acetic acid salt]
≥ 7.00	Cn1cnc(S(=O)(=O)NCc2ccc3c(c2)[C@H](Cc2ccccc2)[C@H](NCC2CCCC2)CO3)c1 (relative stereo) [Example 40, cis-N-((-4-benzyl-3-((cyclopentylmethyl)amino)chroman-6-yl)methyl)-1-methyl-1H-imidazole-4-sulfonamide 2,2,2-trifluoroacetate]
≥ 6.00	N[C@@H]1COc2ccc(CNS(=O)(=O)C3CCC3)cc2[C@H]1Cc1ccccc1 (relative stereo) [Example 70, trans-Cyclobutanesulfonic acid (-3-amino-4-benzyl-chroman-6-ylmethyl)-amide]
≥ 6.00	CCS(=O)(=O)NCCOc1cc2c(cc1F)OC[C@@H](NC)[C@@H]2Cc1ccccc1 (relative stereo) [Example 30, trans-Ethanesulfonic acid [2-(-4-benzyl-7-fluoro-3-methylamino-chroman-6-yloxy)-ethyl]-amide]
≥ 8.00	Cn1cnc(S(=O)(=O)NCc2ccc3c(c2)[C@@H](Cc2ccccc2)[C@@H](NCC2CCCCC2)CO3)c1 (relative stereo) [Example 22, cis-1-Methyl-1H-imidazole-4-sulfonic acid [4-benzyl-3-(cyclohexylmethyl-amino)-chroman-6-lmethyl]-amide; trifluoro-acetic acid salt]
≥ 6.00	O=S(=O)(CC1CC1)NCCOc1ccc2c(c1)[C@H](Cc1ccccc1)[C@H](N1CCC1)CO2 (relative stereo) [Example 11, cis-N-[2-(3-Azetidin-1-yl-4-benzyl-chroman-6-yloxy)-ethyl]-C-cyclopropyl-methanesulfonamide]
≥ 8.00	CN[C@@H]1COc2ccc(CNS(=O)(=O)c3cnn(C)c3)cc2[C@@H]1Cc1ccccc1 (relative stereo) [Example 6a, cis-N-{[4-benzyl-3-(methylamino)-3,4-dihydro-2H-chromen-6-yl]methyl}-1-methyl-1H-pyrazole-4-sulfonamide]
≥ 7.00	CCS(=O)(=O)NCc1ccc2c(c1)[C@@H](Cc1ccccc1)[C@H](N)CO2 (relative stereo) [Example 24, trans-Ethanesulfonic acid (3-amino-4-benzyl-chroman-6-ylmethyl)-amide]
≥ 7.00	CCS(=O)(=O)NCc1cc2c(cc1F)OC[C@@H](NC)[C@@H]2Cc1ccccc1 (relative stereo) [Example 28, trans-Ethanesulfonic acid (-4-benzyl-7-fluoro-3-methylamino-chroman-6-ylmethyl)-amide]
≥ 7.00	N[C@@H]1COc2ccc(CNS(=O)(=O)C3CCC3)cc2[C@@H]1Cc1ccccc1 (relative stereo) [Example 69, cis-Cyclobutanesulfonic acid (-3-amino-4-benzyl-chroman-6-ylmethyl)-amide]
≥ 8.00	CN[C@@H]1COc2ccc(OCCNS(=O)(=O)c3cnn(C)c3)cc2[C@H]1Cc1ccccc1 (relative stereo) [Example 1b, trans-N-(2-{[-4-benzyl-3-(methylamino)-3,4-dihydro-2H-chromen-6-yl]oxy}ethyl)-1-methyl-1H-pyrazole-4-sulfonamide hydrochloride]
≥ 7.00	CCS(=O)(=O)NCc1ccc2c(c1)[C@H](Cc1ccccc1)[C@H](NC)CO2 (relative stereo) [Example 9a, cis-N-{[4-Benzyl-3-(methylamino)-3,4-dihydro-2H-chromen-6-yl]methyl}ethanesulfonamide]
≥ 6.00	CN[C@@H]1COc2ccc(CNS(C)(=O)=O)cc2[C@H]1Cc1ccccc1 (relative stereo) [Example 61, trans-N-(-4-Benzyl-3-methylamino-chroman-6-ylmethyl)-methanesulfonamide]
≥ 7.00	CCS(=O)(=O)NCc1ccc2c(c1)[C@H](Cc1ccccc1)[C@H](N1CCCC1)CO2 (relative stereo) [Example 63, cis-Ethanesulfonic acid (-4-benzyl-3-pyrrolidin-1-yl-chroman-6-ylmethyl)-amide]

Reference: patent publication US8853196B2, “Aminochromane, aminothiochromane and amino-1,2,3,4-tetrahydroquinoline derivatives, pharmaceutical compositions containing them, and their use in therapy” (AbbVie Deutschland GmbH & Co. KG, priority 2011, dated 2014)
